Legend:
soybean rust = assay: Field trial, soybean rust; type: in vivo, Phakopsora pacchyrhizi Sydow; conditions: sprayed 2 times
Protocol: III. The Soybean Rust Test Method:
Spray method: Stein and leaf spraying (Applicator: Xinkangda lithium battery electric sprayer).
Test crops: soybean (cultivars: Glycine max(L) Merr)
The test was carried out in Shenyang, the test field was loam with rich organic matters and normal management of fertilizer and water, and no other pesticide was applied during the test.
The arrangement of the test plot was random block permutation; the area of the test plot: 25 m^2; repeat times: 3 times; spray time and frequency: 2 times on Aug. 11, 2018 and Aug. 21, 2018 respectively. Spray dosage: each treatment was repeated 3 times, the total water consumption was 8 L. No other pesticide was applied during the test. […] 15-20 days after the second spray treatment, the control effect was investigated.
The incidence of disease spots in each plot was investigated by diagonal selecting 5 samples/plot and 20 plants/samples, 10 leaves/plant was surveyed.
The grading standard of crop disease was as follows:
Grade 0: no leaf-spot area;
Grade 1: the ratio of leaf-spot area to leaf area is less than 5%;
Grade 3: the ratio of leaf-spot area to leaf area is between 6-25%;
Grade 5: the ratio of leaf-spot area to leaf area is between 26-50%;
Grade 7: the ratio of leaf-spot area to leaf area is between 51-75%;
Grade 9: the ratio of leaf-spot area to leaf area is between 76-100%;
According to the relevant content of the “Guidelines for the field efficacy trials of pesticides of the People's Republic of China (PRC)”, the disease index was calculated according to the grading standard, and the control effect in a unit of % was calculated based on the disease index, and the test data of significance analysis was performed by using DPS evaluation system (DMRT).

[1] = test system: rice sheath blight fungi (Rhizoctonia solami); assay: Greenhouse pot test, rice sheath blight; type: in vivo
Protocol: (§1) The compounds provided by the present disclosure and some control compounds were tested by the same methods in the Test example 1, except that the effective concentrations of the compounds in this Test example are shown in Table 2.
In addition, the test method for rice sheath blight as following steps:
The potted rice seedling with uniform growth was selected, and dried in the shade for 24 h after spray treatment, then inoculated 3 blocks of 0.25 cm^2 rice sheath blight fungi (Rhizoctonia solami) at the base of seedling by clamp inoculation bacterium block method. The test materials inoculated were moved into greenhouse (temperature: lighting 28° C., dark 25° C., relative humidity 95%), after 7 days, investigate 5 leaves of per block treatment, the grading investigation was carried out according to the disease incidence condition of sheaths and leaves of rice, “Guidelines for the field efficacy trials of pesticides” was adopted as the grading standard, the disease index was calculated according to the grading standard, and the control effect in a unit of % was calculated according to disease index.

[2] = test system: wheat powdery mildew (Erysiphe graminis); assay: Greenhouse pot test, wheat powdery mildew; type: in vivo; conditions: Blumeria graminis, 168 h, read-out: Control effect (%) Wheat powdery mildew
From the text: Test method: each of the test compounds in Table 1 was dispensed to 5 wt % emulsifiable concentrate (hereinafter referred to as 5% EC). The greenhouse pot test was used in each experiment, and the effective concentrations of each compound were illustrated in Table 1.
Wheat powdery mildew: two-leaf stage potted wheat seedling with uniform growth was selected and made foliar spray treatment with 5% EC, the blank control sprayed with clean water was additionally arranged, three replicates were carried out. After 24 h, the leaves of the host plants were inoculated by shake-down method with sporangial suspensions of the fungi wheat powdery mildew (Erysiphe graminis), the plants were stored in a greenhouse (25±1° C.). After 7 days, the screening results were investigated according to the disease incidence condition of blank control.
The investigation method: “Guidelines for the field efficacy trials of pesticides” was adopted as the grading standard, and the control effect in a unit of % was calculated based on the disease index. Disease index=Σ(number of diseased leaves at each grade×relative grade value)×100/(total number of leaves×9); Control effect (%)=(disease index of control−disease index of treated)×100/disease index of control;
as §1

Structure (SMILES): Cn1cc(C(=O)Nc2ccccc2Oc2ccc(C(F)(F)F)cc2C(F)(F)F)c(C(F)F)n1 [Compound 1]
- Control effect (%) (soybean rust; dosage 50 mg/L): 92.67%
- Control effect (%) (soybean rust; dosage 75 mg/L): 94.56%
- Control effect (%) (soybean rust; dosage 100 mg/L): 97.69%
- Control effect (%) Rice sheath blight ([1]; 0.625 mg/L): 75%
- Control effect (%) Rice sheath blight ([1]; 1 mg/L): 80%
- Control effect (%) Rice sheath blight ([1]; 1.5625 mg/L): 85%
- Control effect (%) Rice sheath blight ([1]; 2.5 mg/L): 90%
- Control effect (%) Rice sheath blight ([1]; 3.1250 mg/L): 100%
- Control effect (%) Rice sheath blight ([1]; 10 mg/L): 100%
- pest or weed control at 1.5625 µg/mL ([2]; 1.5625 mg/L): 85%
- pest or weed control at 2.5 µg/mL ([2]; 2.5 mg/L): 100%
- pest or weed control at 3.125 µg/mL ([2]; 3.1250 mg/L): 100%
- pest or weed control at 6.25 µg/mL ([2]; 6.25 mg/L): 100%
- pest or weed control at 10 µg/mL ([2]; 10 mg/L): 100%
- pest or weed control at 25 µg/mL ([2]; 25 mg/L): 100%
- pest or weed control at 100 µg/mL ([2]; 100 mg/L): 100%

Reference: patent US11548855B2, “Pyrazole amide compound and application thereof, and fungicide” (Shandong United Pesticide Industry Co. Ltd., priority 2017, dated 2023)
